Experimental data taken from PubChem BioAssay AID2060503 (Molecular Pharmacology Branch, DTP, NCI, 2025).

Tested on: 817829-284-R-J1-PDC complex spheroids, viability
Assay: Anticancer human tumor 817829-284-R-J1-PDC patient-derived colon adenocarcinoma cell line growth inhibition [GQUAD]
Details: for IC50: curve of first compound; for viability, T/C: stronger effect = lower value; active = viability on the fitted dose curve at most 10% of control; inactive = the rest
Procedure, shortened: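 Multi-cell-type spheroids of tumor cells with HUVEC and mesenchymal stem cells, treated with drug combinations. Concentrations descend in half-log steps from near clinical Cmax, or from 10 microM where Cmax is unknown; viability read-out.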

[1] = second compound 0.0316 µM, first compound 0.0316 µM
[2] = second compound 0.0316 µM, first compound 0.1 µM
[3] = second compound 0.0316 µM, first compound 0.316 µM
[4] = second compound 0.0316 µM, first compound 1 µM
[5] = second compound 0.0316 µM, first compound 3.16 µM
[6] = second compound 0.0316 µM, first compound 10 µM
[7] = second compound 0.1 µM, first compound 0.0316 µM
[8] = second compound 0.1 µM, first compound 0.1 µM
[9] = second compound 0.1 µM, first compound 0.316 µM
[10] = second compound 0.1 µM, first compound 1 µM
[11] = second compound 0.1 µM, first compound 3.16 µM
[12] = second compound 0.1 µM, first compound 10 µM
[13] = second compound 0.316 µM, first compound 0.0316 µM
[14] = second compound 0.316 µM, first compound 0.1 µM
[15] = second compound 0.316 µM, first compound 0.316 µM
[16] = second compound 0.316 µM, first compound 1 µM
[17] = second compound 0.316 µM, first compound 3.16 µM
[18] = second compound 0.316 µM, first compound 10 µM
[19] = second compound 1 µM, first compound 0.0316 µM
[20] = second compound 1 µM, first compound 0.1 µM
[21] = second compound 1 µM, first compound 0.316 µM
[22] = second compound 1 µM, first compound 1 µM
[23] = second compound 1 µM, first compound 3.16 µM
[24] = second compound 1 µM, first compound 10 µM
[25] = second compound 3.16 µM, first compound 0.0316 µM
[26] = second compound 3.16 µM, first compound 0.1 µM
[27] = second compound 3.16 µM, first compound 0.316 µM
[28] = second compound 3.16 µM, first compound 1 µM
[29] = second compound 3.16 µM, first compound 3.16 µM
[30] = second compound 3.16 µM, first compound 10 µM
[31] = second compound 10 µM, first compound 0.0316 µM
[32] = second compound 10 µM, first compound 0.1 µM
[33] = second compound 10 µM, first compound 0.316 µM
[34] = second compound 10 µM, first compound 1 µM
[35] = second compound 10 µM, first compound 3.16 µM
[36] = second compound 10 µM, first compound 10 µM
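Also: spheroids exposed to agents for 7 days before readout.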
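For viability, T/C in this document: percent viability relative to DMSO vehicle control taken as 100%.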

Cc1cccc(N(C)C(=O)C2C(O)CCN2c2nc(C)cc(C(F)(F)F)c2C#N)c1 (stereo unspecified) + Cc1[nH]c2ccc(F)cc2c1-c1nc2c3cccnc3c3ncccc3c2[nH]1
inactive: viability, T/C [1] 103% | viability, T/C [2] 86.2% | viability, T/C [3] 99.9% | viability, T/C [4] 78% | viability, T/C [5] 97.6% | viability, T/C [6] 95.3% | viability, T/C [7] 78.9% | viability, T/C [8] 97.7% | viability, T/C [9] 89.7% | viability, T/C [10] 102% | viability, T/C [11] 101% | viability, T/C [12] 105% | viability, T/C [13] 90.9% | viability, T/C [14] 116% | viability, T/C [15] 99.3% | viability, T/C [16] 115% | viability, T/C [17] 111% | viability, T/C [18] 100% | viability, T/C [19] 96.6% | viability, T/C [20] 103% | viability, T/C [21] 106% | viability, T/C [22] 98.7% | viability, T/C [23] 100% | viability, T/C [24] 90% | viability, T/C [25] 94.9% | viability, T/C [26] 96.1% | viability, T/C [27] 82.5% | viability, T/C [28] 99.2% | viability, T/C [29] 98.2% | viability, T/C [30] 96.7% | viability, T/C [31] 83.3% | viability, T/C [32] 96.4% | viability, T/C [33] 96.4% | viability, T/C [34] 55.3% | viability, T/C [35] 82.6% | viability, T/C [36] 63.2%
> 10000 nM: IC50 (second compound 0.0316 µM) | IC50 (second compound 0.1 µM) | IC50 (second compound 0.316 µM) | IC50 (second compound 1 µM) | IC50 (second compound 3.16 µM) | IC50 (second compound 10 µM)

Nc1ccn(C2OC(CO)C(O)C2(F)F)c(=O)n1 (stereo unspecified) + Cc1[nH]c2ccc(F)cc2c1-c1nc2c3cccnc3c3ncccc3c2[nH]1
active: viability, T/C [2] 6.9% | viability, T/C [3] 6.88% | viability, T/C [4] 6.74% | viability, T/C [5] 5.53% | viability, T/C [6] 3.68% | viability, T/C [8] 8.53% | viability, T/C [9] 7.09% | viability, T/C [10] 6.66% | viability, T/C [11] 4.94% | viability, T/C [12] 3.89% | viability, T/C [14] 9.71% | viability, T/C [15] 6.14% | viability, T/C [16] 6.13% | viability, T/C [17] 6.19% | viability, T/C [18] 3.54% | viability, T/C [20] 8.09% | viability, T/C [21] 5.47% | viability, T/C [22] 5.85% | viability, T/C [23] 5.57% | viability, T/C [24] 3.28% | viability, T/C [26] 7.63% | viability, T/C [27] 3.35% | viability, T/C [28] 3.87% | viability, T/C [29] 3.33% | viability, T/C [30] 2.74% | viability, T/C [31] 7.76% | viability, T/C [32] 3.83% | viability, T/C [33] 2.59% | viability, T/C [34] 2.55% | viability, T/C [35] 2.74% | viability, T/C [36] 2.11%
< 31.6 nM: IC50 (second compound 0.0316 µM) | IC50 (second compound 0.1 µM) | IC50 (second compound 0.316 µM) | IC50 (second compound 1 µM) | IC50 (second compound 3.16 µM) | IC50 (second compound 10 µM)
inactive: viability, T/C [1] 20.2% | viability, T/C [7] 14.1% | viability, T/C [13] 13.8% | viability, T/C [19] 20.8% | viability, T/C [25] 12.7%

O=c1[nH]cc(F)c(=O)[nH]1 + Cc1[nH]c2ccc(F)cc2c1-c1nc2c3cccnc3c3ncccc3c2[nH]1
234 nM: IC50 (second compound 10 µM)
inactive: viability, T/C [1] 113% | viability, T/C [2] 92.3% | viability, T/C [3] 106% | viability, T/C [4] 58.9% | viability, T/C [5] 42.2% | viability, T/C [6] 31.4% | viability, T/C [7] 86.8% | viability, T/C [8] 101% | viability, T/C [9] 115% | viability, T/C [10] 68.9% | viability, T/C [11] 40.5% | viability, T/C [12] 31.5% | viability, T/C [13] 91.1% | viability, T/C [14] 113% | viability, T/C [15] 137% | viability, T/C [16] 69.2% | viability, T/C [17] 40.3% | viability, T/C [18] 33.8% | viability, T/C [19] 92.2% | viability, T/C [20] 113% | viability, T/C [21] 113% | viability, T/C [22] 67.3% | viability, T/C [23] 39.1% | viability, T/C [24] 32.2% | viability, T/C [25] 106% | viability, T/C [26] 106% | viability, T/C [27] 87.6% | viability, T/C [28] 31.3% | viability, T/C [29] 27.5% | viability, T/C [30] 20.4% | viability, T/C [31] 31.7% | viability, T/C [32] 73.2% | viability, T/C [33] 48.5% | viability, T/C [34] 15.9%
1590 nM: IC50 (second compound 0.0316 µM)
1880 nM: IC50 (second compound 1 µM)
1990 nM: IC50 (second compound 0.316 µM)
684 nM: IC50 (second compound 3.16 µM)
active: viability, T/C [35] 7.19% | viability, T/C [36] 8.78%
1940 nM: IC50 (second compound 0.1 µM)
